Experimental data taken from paper PMC11117721, “A Fast-Binding, Functionally Reversible, COX-2 Radiotracer for CNS PET Imaging” (ACS Central Science, 2024).

Molecular target: T1, COX-2 (Homo sapiens, UniProt P35354)
T1 sequence (P35354 18-604): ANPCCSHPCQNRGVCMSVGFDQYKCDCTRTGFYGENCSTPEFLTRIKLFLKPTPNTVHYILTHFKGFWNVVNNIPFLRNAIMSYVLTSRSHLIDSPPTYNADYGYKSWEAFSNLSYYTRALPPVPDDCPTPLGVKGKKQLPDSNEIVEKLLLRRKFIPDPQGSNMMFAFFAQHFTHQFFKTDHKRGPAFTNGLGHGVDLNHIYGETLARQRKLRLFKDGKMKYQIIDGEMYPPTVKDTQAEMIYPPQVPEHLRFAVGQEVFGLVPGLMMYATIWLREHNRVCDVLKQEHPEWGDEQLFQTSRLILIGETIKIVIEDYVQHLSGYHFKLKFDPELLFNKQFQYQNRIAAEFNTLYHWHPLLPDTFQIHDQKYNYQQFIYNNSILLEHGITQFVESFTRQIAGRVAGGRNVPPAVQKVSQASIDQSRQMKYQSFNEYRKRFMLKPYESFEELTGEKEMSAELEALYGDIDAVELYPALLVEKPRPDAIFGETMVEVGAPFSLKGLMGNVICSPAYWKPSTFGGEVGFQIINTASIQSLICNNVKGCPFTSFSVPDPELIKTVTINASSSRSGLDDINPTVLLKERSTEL
Assay: PET neuroimaging of rats with localized human COX-2 overexpression (intrastriatal AAV2-GFP-hCOX2)
Type: in vivo
Set-up: FLAG; P2A linker remnant (GFP cassette co-expressed, separated by P2A); host or cells: rat striatal (caudate putamen) neurons transduced in vivo with AAV2, human synapsin promoter
Details: COX-2 overexpression rat model
Procedure: Localized overexpression of human COX-2 was induced in rats with intrastriatal injections of AAV2-GFP-hCOX2 to the right caudate and AAV2-GFP (control virus) to the left caudate (Figure 2A).[53] Animals also received a systemic injection of mannitol to enhance vector spread and transgene expression.[54] To directly compare the kinetic profiles of the three COX-2 tracers, intrasubject imaging was performed in several rats. Each animal was scanned under baseline and competition (+celecoxib) conditions, testing each tracer within each animal (initial data in Figure 2). […] The full experimental design was then replicated (Figure S8 in the Supporting Information). An additional experiment lacking the control virus to the left caudate was performed to facilitate assessment of tracer uptake that could be mediated by the instrastiatal injection through blood brain barrier disruption (Figure S9 in the Supporting Information).
In accordance with Massachusetts General Hospital Institutional Animal Care and Use Committee (IACUC) protocols, Sprague Dawley rats (300-500g, Charles River Laboratories), wildtype mice (Strain […]
Respiratory rates and body temperature were monitored through all imaging and surgical procedures, generally using a respiratory pad and rectal probe. […]
Figure 9). […] Using a sterile ruler coordinates ML 2.5 mm; AP 0.5 mm was measured and marked respective t o bregma. […]

- time of clear separation of right caudate PET signal from controls (left caudate and cerebellum): 10 min
SMILES: [11CH3]S(=O)(=O)c1ccc(-c2cccc(NCc3ccoc3)n2)cc1 [[^11C]BRD1158]
